Values after ≈ are worked out from the molar mass of the structure shown.
Columns and labels:
Assay in all cases: Antibacterial broth microdilution
Format in all cases: cell-based
C. diphtheriae = details: Corynebacterium diphtheriae, standard
Protocol: (§1) Brain-heart infusion broth (BHI, Becton Dickinson) supplemented with 10% bovine serum was used for the cultivation of Streptococcus. […] Corynebacterium diphtheriae ZMF was cultured in Brain-heart infusion broth (BHI, Becton Dickinson) supplemented with 10% bovine serum under aerobic conditions at 37 °C for 72 h. Fungal strains-Candida albicans (ATCC10231), Candida albicans (ATCC26790), Candida [NT]200), Candida krusei (ATCC6258), Candida parapsilosis (ATCC22019) were grown in Sabourauda broth (SB, Becton Dickinson), under aerobic conditions at 37 °C for 72 h. For post-incubation viability assessment, BHI blood agar plates, MH agar plates, and Sabouraud agar plates were used. Active cultures were prepared by transferring cells from stock cultures into appropriate broth, as described above. […] Cultures were then diluted in the same broth to achieve an optical density corresponding to approximately 10^6 colony-forming units per milliliter (CFU/mL) for all bacteria strains except C. acnes and C. diphtheriae ZMF. […] [2014]). The minimum inhibitory concentration (MIC) was determined using the broth microdilution method in 96-well plates. Each well was filled with 100 μL of broth. […] These solutions were serially diluted and added to the first well of each row. Serial twofold dilutions were performed by transferring 100 μL from well to well up to the twelfth well, from which 100 μL was discarded. […] Ampicillin served as the reference standard, with concentrations ranging from 128 to 0.0625 μg/mL. Plates were incubated under the appropriate conditions at 37 °C for […] (Clostridium sp. was incubated anaerobically). MIC values were determined by visual observation and defined as the lowest extract concentration that prevented visible microbial growth. To determine the minimum bactericidal concentration (MBC), 100 μL from wells showing no visible growth were plated on agar media. […] The MBC was defined as the lowest concentration of extracts required to completely eliminate viable microorganisms (Hałasa et al. [2014]).

C. acnes ATCC6919 = details: Cutibacterium acnes, standard
Protocol: as §1

B. subtilis ATCC6633 = details: Bacillus subtilis, standard
Protocol: as §1

M. catarrhalis PCM2340 = details: Moraxella catarrhalis, standard
Protocol: as §1

S. epidermidis ATCC14990 = details: Staphylococcus epidermidis, standard
Protocol: as §1

[1] = system: Streptococcus β hemolytic group G; details: S. β-hemolytic group G, standard
Protocol: as §1

S. equinus ATCC15351 = details: Streptococcus equinus, standard
Protocol: as §1

MIC (C. diphtheriae): 16 µg/mL (≈ 45.8 µM)
MIC (C. acnes ATCC6919): 32 µg/mL (≈ 91.6 µM)
MIC (B. subtilis ATCC6633): 0.4 µg/mL (≈ 1.14 µM)
MIC (M. catarrhalis PCM2340): 2.5 µg/mL (≈ 7.15 µM)
MIC (S. epidermidis ATCC14990): 0.3 µg/mL (≈ 0.859 µM)
MIC (S. equinus ATCC15351): 16 µg/mL (≈ 45.8 µM)
Structure (SMILES): CC1(C)S[C@@H]2[C@H](NC(=O)[C@H](N)c3ccccc3)C(=O)N2[C@H]1C(=O)O [Ampicillin, ampicillin]
MIC [1]: 16 µg/mL (≈ 45.8 µM)

Source: PMC12584836, “Rubus caesius leaves and stems in antiaging skin care products: antityrosinase, anticollagenase, antimicrobial activity, and transdermal distribution of main phenolic acids” (Pharmaceutical Biology, 2025)
